# Measurements: BindingDB's records for doi:10.7270/Q2BR8QM3 (Nmmlsc, 2008)
# Counter-ions that a name gives are not always drawn.
# Biological target: T1, Bcl-2-like protein 2 (Homo sapiens, UniProt Q92843)
# T1 sequence (Q92843 whole entry): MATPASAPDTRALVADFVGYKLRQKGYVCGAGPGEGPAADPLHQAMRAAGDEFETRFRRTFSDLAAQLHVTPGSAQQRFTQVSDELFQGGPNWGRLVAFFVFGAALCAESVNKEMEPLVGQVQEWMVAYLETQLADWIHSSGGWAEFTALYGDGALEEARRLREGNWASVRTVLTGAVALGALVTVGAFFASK
# Test: modulators of Bim-Bcl-W protein interaction, dose response, biochemical, multiplexed, bead-based flow cytometry, fluorescence (AID 1330)
# [1] = inactive by the depositor's call
SMILES,EC50 [µM],EC50 [1] [µM]
CN1CCc2cccc3c2[C@@H]1Cc1ccc(O)c(O)c1-3,9.95,
CCN(CC)c1ccc(-c2nn3c(-c4cccnc4)nnc3s2)cc1,,12
CCOCCCNc1nc(S)nc2cc(OC)c(OC)cc12,,2.2
COCCNc1[nH]c(=S)nc2cc(OC)c(OC)cc12,,3.86
CN1CCN(C2=C(Cl)C(=O)C(c3cnc(N4CCCCC4)s3)=C(Cl)C2=O)CC1,,0.04
CCOC(=O)c1ccc(Nc2nc(C(=O)OCC)nc3ccccc23)cc1,,2.67
CCOCCCn1c(N)c(C(=O)Nc2sc3c(c2C(=O)OC)CCCC3)c2nc3ccccc3nc21,,1.8
COc1cccc(CN=Nc2nn3cnnc3c3ccccc23)c1O,0.49,
CCN1C(=O)/C(=C/C=C2\C=CN(CC)c3ccccc32)SC1=S,,15.9
Cc1ccc(-c2ccc(/C=C/C(=O)c3ccccc3)o2)cc1,,3.56
CCC(/C=C1\Sc2ccc(OC)cc2N1CCO)=C\c1sc2ccc(OC)cc2[n+]1CCO,22.1,
O=S1(=O)N=C(N(CCO)N=C/C=C/c2ccccc2)c2ccccc21,,20.6
COc1ccc(-n2c(=O)c3ccccc3c3ccccc3c2=O)c(OC)c1,,16.3
Cc1nc2ncccn2c1-c1csc(Nc2ccc(O)cc2)n1,0.33,
COc1cc2nc(=S)n(CCCN3CCOCC3)c(N)c2cc1OC,,9.25
CN(C)c1ncc(C2=C(Cl)C(=O)C(N3CCCC3)=C(Cl)C2=O)s1,,0.05
Cc1ccc(C)c(/C=C/C(=O)c2ccccc(=O)c2O)c1,,8.51
O=C(NC1=C(Nc2ccc(Cl)cc2)C(=O)c2ccccc2C1=O)c1ccccc1,,10.1
CCN(CC)S(=O)(=O)c1cccc(C(=O)NN=Cc2ccc(O)c(O)c2O)c1,5.13,
CCOC(=O)c1c(NC(C)=O)sc2c(O)c(Br)cc(Br)c12,,40.3
O=C(Nc1ccc2nc(-c3ccco3)c(-c3ccco3)nc2c1)N1CCN(c2ccccn2)CC1,,14.9
O=C(c1ccccc1)c1ccc2nc(-c3ccco3)c(-c3ccco3)nc2c1,,14.8
CCOc1ccccc1CNc1ccc(O)cc1,,2.31
COCCN=c1scc(-c2ccco2)n1N=Cc1ccc(O)c(O)c1O,1.81,

SMILES,EC50 [µM],EC50 [1] [µM]
COc1cc2nc(=S)[nH]c(NCCCOC(C)C)c2cc1OC,,9
"CC1N(C)c2cccc3cccc(c23)N1C [1,2,3-trimethyl-2,3-dihydro-1H-perimidine]",,2.26
"Cc1ccc(CNc2ccc3c(c2)OCO3)c(C)c1 [1,3-benzodioxol-5-yl(2,4-dimethylbenzyl)amine]",,44.2
"COCCNC(=S)Nc1cc(OC)c(OC)cc1C#N [1-(2-cyano-4,5-dimethoxy-phenyl)-3-(2-methoxyethyl)thiourea]",,14.5
Cc1ccc(C(=O)/C=C/c2ccc(-c3ccc(C)cc3)o2)cc1 [1-p-Tolyl-3-(5-p-tolyl-furan-2-yl)-propenone],,1.02
"O=C(NCc1ccccc1)c1ccc2nc(-c3ccco3)c(-c3ccco3)nc2c1 [2,3-bis(furan-2-yl)-N-(phenylmethyl)quinoxaline-6-carboxamide]",6.03,
"COc1ccc2nc(-c3ccco3)c(-c3ccco3)nc2c1 [2,3-di-2-furyl-6-methoxyquinoxaline]",,28.3
"O=C(NCc1ccccn1)c1ccc2nc(-c3ccco3)c(-c3ccco3)nc2c1 [2,3-di-2-furyl-N-(pyridin-2-ylmethyl)quinoxaline-6-carboxamide]",7.22,
"O=C(Nc1ccccc1)c1ccc2nc(-c3ccco3)c(-c3ccco3)nc2c1 [2,3-di-2-furyl-N-phenyl-6-quinoxalinecarboxamide]",,18.2
c1coc(C2=Nc3cccc4cccc(c34)N2)c1 [2-(2-furanyl)-1H-perimidine],,6.62
"COc1ccc(CC(=O)Nc2ccc(-c3nc4cc(C)ccc4o3)c(O)c2)cc1OC [2-(3,4-dimethoxyphenyl)-N-[(4Z)-3-keto-4-(5-methyl-3H-1,3-benzoxazol-2-ylidene)cyclohexa-1,5-dien-1-yl]acetamide]",10.1,
"COc1cc(CNc2ccc3[nH]c(=O)[nH]c3c2)cc(Br)c1OCC(=O)NC(C)(C)C [2-[2-bromo-6-methoxy-4-[[(2-oxo-1,3-dihydrobenzimidazol-5-yl)amino]methyl]phenoxy]-N-tert-butylacetamide]",,1.47
"Cc1cc(OCc2cn3cccnc3n2)ccc1Cl [2-[(4-chloranyl-3-methyl-phenoxy)methyl]imidazo[1,2-a]pyrimidine]",,19.8
"Cc1ccc(/C=C/C2=Cc3c(sc(NC(=O)CSc4nnc(N)[nH]4)c3C#N)C(C)(C)C2)o1 [2-[(5-azanyl-1H-1,2,4-triazol-3-yl)sulfanyl]-N-[3-cyano-7,7-dimethyl-5-[(E)-2-(5-methylfuran-2-yl)ethenyl]-6H-1-benzothiophen-2-yl]ethanamide]",,6.38
"O=C(CSc1ccc2nnc(-c3ccccn3)n2n1)Nc1nccs1 [2-[[3-(2-pyridinyl)-[1,2,4]triazolo[4,3-b]pyridazin-6-yl]thio]-N-(2-thiazolyl)acetamide]",,14.1
Cc1ccc(-c2cc(-c3ccc(C)o3)nc(N)c2C#N)cc1 [2-amino-6-(5-methylfuran-2-yl)-4-(4-methylphenyl)pyridine-3-carbonitrile],,18.5
CCN(CC)c1ccc(NC2=C(Cl)C(=O)c3ccccc3C2=O)cc1 [2-chloro-3-{[4-(diethylamino)phenyl]amino}naphthoquinone],,0.17
"O=C(/C=C/c1ccccc1Cl)c1ccccc(=O)c1O [3-[(E)-3-(2-chlorophenyl)prop-2-enoyl]-2-oxidanyl-cyclohepta-2,4,6-trien-1-one]",,11.8
Cc1cc(N)ccc1N1CCCC1 [3-methyl-4-(1-pyrrolidinyl)aniline;hydrochloride],3.96,
"COc1cc(C2Nc3cccc4cccc(c34)N2)cc(OC)c1O [4-(2,3-dihydro-1H-perimidin-2-yl)-2,6-dimethoxyphenol]",3.25,
"Cc1nc2ncccn2c1-c1csc(Nc2ccccc2)n1 [4-(2-methyl-3-imidazo[1,2-a]pyrimidinyl)-N-phenyl-2-thiazolamine]",,8.71
"CCN(CC)c1ccc(Nc2nc(N3CCOCC3)c3ccccc3n2)cc1 [4-N,4-N-diethyl-1-N-(4-morpholin-4-ylquinazolin-2-yl)benzene-1,4-diamine]",,4.71
CCOc1cccc(CNc2ccc(O)cc2)c1OCc1ccc(Cl)cc1 [4-[[2-[(4-chlorophenyl)methoxy]-3-ethoxyphenyl]methylamino]phenol],,10.2
"Cc1cc(C)nc(SCc2cc(=O)c(OC(=O)c3ccc(Cl)c([N+](=O)[O-])c3)co2)n1 [4-chloro-3-nitrobenzoic acid [6-[[(4,6-dimethyl-2-pyrimidinyl)thio]methyl]-4-oxo-3-pyranyl] ester]",,6.18

SMILES,EC50 [µM],EC50 [1] [µM]
"CCc1ccc(/C=C/C(=O)c2cc(Br)ccc(=O)c2O)cc1 [5-bromo-3-[(E)-3-(4-ethylphenyl)-1-oxoprop-2-enyl]-2-hydroxy-1-cyclohepta-2,4,6-trienone]",,52.1
"COc1cc2nc(=S)[nH]c(NCC3CCCO3)c2cc1OC (stereo unspecified) [6,7-dimethoxy-4-(2-oxolanylmethylamino)-1H-quinazoline-2-thione]",,4.62
"COc1ccc(C2=Nn3c(nnc3-c3ccco3)SC2)cc1OC [6-(3,4-Dimethoxy-phenyl)-3-furan-2-yl-7H-[1,2,4]triazolo[3,4-b][1,3,4]thiadiazine]",,4.24
"CN(N=C/C=C/c1ccccc1)C1=NS(=O)(=O)c2ccccc21 [(1E,2E)-3-phenylacrylaldehyde (1,1-dioxido-1,2-benzisothiazol-3-yl)(methyl)hydrazone]",,3.67
"COc1cc(/C=C2\CC/C(=C\c3cc(OC)c(O)c(OC)c3)C2=O)cc(OC)c1O [(2E,5E)-2,5-bis[(4-hydroxy-3,5-dimethoxyphenyl)methylidene]cyclopentan-1-one]",3.31,
Cc1ccc(-c2ccc(/C=C3\SC(N4CCOCC4)=NC3=O)o2)cc1 [(5Z)-5-[[5-(4-methylphenyl)-2-furanyl]methylidene]-2-(4-morpholinyl)-4-thiazolone],,89
O=C(/C=C/c1ccc(-c2ccccc2)o1)c1ccccc1 [(E)-1-phenyl-3-(5-phenyl-2-furanyl)-2-propen-1-one],,13.9
O=C(/C=C\c1ccc(-c2ccccc2)o1)c1ccccc1 [(Z)-1-phenyl-3-(5-phenyl-2-furanyl)-2-propen-1-one],,10.6
CN1CCc2cccc3c2[C@H]1Cc1ccc(O)c(O)c1-3 [APOMORPHINE HYDROCHLORIDE],19,
"COc1cc(C2Nc3cccc4cccc(c34)N2)ccc1OC(C)=O [Acetic acid 4-(2,3-dihydro-1H-perimidin-2-yl)-2-methoxy-phenyl ester]",,11.5
COC(=O)CSc1ncnc2c1sc1nc(-c3ccco3)c3c(c12)CC(C)(C)OC3 [MLS000039339],,34
CCOc1cc(C2Nc3cccc4cccc(c34)N2)ccc1O [MLS000068595],,31.7
O=C1c2ccccc2-c2onc3ccc(NCc4ccco4)c1c23 [MLS000080234],8.37,
Cc1cc(-c2nnc3n2N=C(c2ccc(-c4ccccc4)cc2)CS3)[nH]n1 [MLS000082991],,7.58
Cc1cc2n(c1)CCn1c(C)ccc1-2 [MLS000104384],,13.6
CCOC(=O)C1CCN(C(=O)Nc2ccc3nc(-c4ccco4)c(-c4ccco4)nc3c2)CC1 [MLS000113285],4.93,
Clc1nc(NCc2cccnc2)nc(N2CCOCC2)n1 [MLS000121154],,18.5
O=[N+]([O-])c1ccc(N=NCc2ccc(O)c(O)c2O)c(S(=O)(=O)N2CCOCC2)c1 [MLS000336720],3.52,
Cc1ccc(NC2=C(NC(=O)c3ccccc3)C(=O)c3ccccc3C2=O)cc1Cl [MLS000392290],,4.34
O=C1C=CC(C=NNC(=O)C(=Cc2ccc([N+](=O)[O-])cc2)NC(=O)c2ccccc2)C(O)=C1O (stereo unspecified) [MLS000530401],4.76,
COc1ccc2c3c(cccc13)N(C)N=C2C [MLS000554700],1.56,
CCOc1cccc(CNc2ccc(O)cc2)c1OCc1ccccc1Cl [MLS000580486],,6.13
COCCCn1c(N)c(C(=O)Nc2sc3c(c2C(=O)OC)CCCC3)c2nc3ccccc3nc21 [MLS000595323],,2.34
